Source: ChEMBL document CHEMBL1201862, “PubChem BioAssay data set” (2004)
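These data come from cells grown in 96-well plates and exposed to compound for 48 hours at five concentrations. At the GI50, growth is halved.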 Active and inactive are the calls of the source. Cut-off read from the data, not from the text of the source: active = GI50 up to about 1.1 µM and inactive = higher.

What was measured:
Assay in all cases: NCI tumour cell line growth inhibition, 48 h
DU-145 = tested on: DU-145
U-251 = tested on: U-251
HOP-92 = tested on: HOP-92
RPMI-8226 = tested on: RPMI-8226
HCT-15 = tested on: HCT-15
TK-10 = tested on: TK-10
OVCAR-8 = tested on: OVCAR-8
A549 = tested on: A549
T47D = tested on: T47D
CAKI-1 = tested on: CAKI-1
LOX IMVI = tested on: LOX IMVI
HL-60 = tested on: HL-60
SK-MEL-28 = tested on: SK-MEL-28
UO-31 = tested on: UO-31
K562 = tested on: K562
SF-295 = tested on: SF-295
MCF7 = tested on: MCF7
OVCAR-3 = tested on: OVCAR-3
HCC 2998 = tested on: HCC 2998

Structure (SMILES)	GI50 (DU-145)	GI50 (U-251)	GI50 (HOP-92)	GI50 (RPMI-8226)	GI50 (HCT-15) [µM]	GI50 (TK-10)	GI50 (OVCAR-8)	GI50 (A549)	GI50 (T47D)	GI50 (CAKI-1)	GI50 (LOX IMVI)	GI50 (HL-60)	GI50 (SK-MEL-28)	GI50 (UO-31)	GI50 (K562)	GI50 (SF-295)	GI50 (MCF7)	GI50 (OVCAR-3)	GI50 (HCC 2998)
Cn1c(N)c(/N=N/c2ccc(S(N)(=O)=O)cc2)c(=O)n(C)c1=O	> 100 µM (inactive)	45.9 µM (inactive)	> 100 µM (inactive)	> 100 µM (inactive)	> 100	> 100 µM (inactive)	> 100 µM (inactive)	> 100 µM (inactive)	> 100 µM (inactive)	> 100 µM (inactive)	> 100 µM (inactive)	> 100 µM (inactive)	> 100 µM (inactive)	> 100 µM (inactive)	> 100 µM (inactive)	> 100 µM (inactive)	> 100 µM (inactive)	> 100 µM (inactive)	–
C/C(=N\c1ccc(N(C)C)cc1)c1ccccc1	34.9 µM (inactive)	22.5 µM (inactive)	–	–	18.5	20.8 µM (inactive)	35.4 µM (inactive)	27.9 µM (inactive)	21.7 µM (inactive)	19.8 µM (inactive)	–	16.4 µM (inactive)	33.7 µM (inactive)	17.8 µM (inactive)	21.3 µM (inactive)	31.9 µM (inactive)	21.9 µM (inactive)	17.8 µM (inactive)	44.6 µM (inactive)
CCN1CSC(=S)N(CC)C1	> 100 µM (inactive)	50.8 µM (inactive)	> 100 µM (inactive)	50.9 µM (inactive)	73.3	> 100 µM (inactive)	98.4 µM (inactive)	> 100 µM (inactive)	> 100 µM (inactive)	–	–	15 µM (inactive)	> 100 µM (inactive)	> 100 µM (inactive)	> 100 µM (inactive)	> 100 µM (inactive)	41 µM (inactive)	37.8 µM (inactive)	> 100 µM (inactive)
N#C/C(=C(\O)C(=O)O)c1ccc(-c2cccc3ccccc23)cc1	> 100 µM (inactive)	> 100 µM (inactive)	> 100 µM (inactive)	29 µM (inactive)	> 100	> 100 µM (inactive)	> 100 µM (inactive)	> 100 µM (inactive)	> 100 µM (inactive)	> 100 µM (inactive)	> 100 µM (inactive)	19.5 µM (inactive)	> 100 µM (inactive)	> 100 µM (inactive)	2.65 µM (inactive)	> 100 µM (inactive)	> 100 µM (inactive)	> 100 µM (inactive)	–
CC(=O)SCCC(NC(=S)Nc1ccccc1)P(=O)(Oc1ccccc1)Oc1ccccc1 (stereo not drawn)	> 100 µM (inactive)	> 100 µM (inactive)	> 100 µM (inactive)	–	> 100	60.8 µM (inactive)	> 100 µM (inactive)	> 100 µM (inactive)	> 100 µM (inactive)	> 100 µM (inactive)	> 100 µM (inactive)	> 100 µM (inactive)	> 100 µM (inactive)	> 100 µM (inactive)	> 100 µM (inactive)	> 100 µM (inactive)	> 100 µM (inactive)	> 100 µM (inactive)	> 100 µM (inactive)
O=C(OCc1ccc([N+](=O)[O-])cc1)N1c2ccccc2[C@@]23O[C@]24CCC[C@H]3C#C/C=C\C#C[C@H]14	> 100 µM (inactive)	> 100 µM (inactive)	> 100 µM (inactive)	–	89.1	> 100 µM (inactive)	> 100 µM (inactive)	8.77 µM (inactive)	> 100 µM (inactive)	37.4 µM (inactive)	56.5 µM (inactive)	25 µM (inactive)	> 100 µM (inactive)	> 100 µM (inactive)	88.1 µM (inactive)	> 100 µM (inactive)	8.18 µM (inactive)	> 100 µM (inactive)	> 100 µM (inactive)
Nc1nc2c(C(=O)O)c3ccc([N+](=O)[O-])cc3c(=O)n2c2ccccc12	16.5 µM (inactive)	27.2 µM (inactive)	–	27.5 µM (inactive)	22.9	–	18.7 µM (inactive)	26.2 µM (inactive)	20.4 µM (inactive)	34.4 µM (inactive)	11.9 µM (inactive)	32.1 µM (inactive)	52.8 µM (inactive)	29.8 µM (inactive)	19.5 µM (inactive)	29.1 µM (inactive)	16.2 µM (inactive)	21.1 µM (inactive)	32.3 µM (inactive)
CCOC1=NC(C(F)(F)F)(C(F)(F)F)N=C(N2CCCCC2)O1	> 100 µM (inactive)	> 100 µM (inactive)	> 100 µM (inactive)	> 100 µM (inactive)	> 100	> 100 µM (inactive)	> 100 µM (inactive)	> 100 µM (inactive)	> 100 µM (inactive)	> 100 µM (inactive)	> 100 µM (inactive)	29.3 µM (inactive)	> 100 µM (inactive)	> 100 µM (inactive)	> 100 µM (inactive)	> 100 µM (inactive)	> 100 µM (inactive)	> 100 µM (inactive)	–
COc1cc(O)c2c(=O)c3ccccc3n(C)c2c1	> 100 µM (inactive)	29.4 µM (inactive)	46.1 µM (inactive)	–	43.5	20.1 µM (inactive)	18.7 µM (inactive)	> 100 µM (inactive)	> 100 µM (inactive)	> 100 µM (inactive)	84.5 µM (inactive)	> 100 µM (inactive)	> 100 µM (inactive)	6.85 µM (inactive)	> 100 µM (inactive)	27.7 µM (inactive)	> 100 µM (inactive)	> 100 µM (inactive)	> 100 µM (inactive)
CCCc1cn2c(/C=N/NC(=N)N)c(-c3cccc([N+](=O)[O-])c3)nc2s1	1.74 µM (inactive)	1.86 µM (inactive)	11.1 µM (inactive)	1.8 µM (inactive)	1.84	0.0405 µM (active)	1.88 µM (inactive)	1.73 µM (inactive)	1.94 µM (inactive)	2.01 µM (inactive)	2.07 µM (inactive)	2.09 µM (inactive)	1.43 µM (inactive)	1.9 µM (inactive)	1.58 µM (inactive)	1.84 µM (inactive)	2.48 µM (inactive)	1.8 µM (inactive)	–
O=C1CCCC(=O)N1n1c(Cc2ccc(Cl)cc2)n[nH]c1=O	> 100 µM (inactive)	> 100 µM (inactive)	–	> 100 µM (inactive)	> 100	> 100 µM (inactive)	> 100 µM (inactive)	> 100 µM (inactive)	> 100 µM (inactive)	> 100 µM (inactive)	> 100 µM (inactive)	> 100 µM (inactive)	> 100 µM (inactive)	> 100 µM (inactive)	> 100 µM (inactive)	> 100 µM (inactive)	> 100 µM (inactive)	> 100 µM (inactive)	> 100 µM (inactive)
Cc1ccc(-c2cc(C(F)(F)F)nn2-c2ccc(S(N)(=O)=O)cc2)cc1 [CELECOXIB]	16.3 µM (inactive)	16.1 µM (inactive)	–	3.85 µM (inactive)	15.9	18.8 µM (inactive)	19.7 µM (inactive)	14.4 µM (inactive)	16.8 µM (inactive)	19.6 µM (inactive)	18.2 µM (inactive)	14.8 µM (inactive)	17.6 µM (inactive)	14.8 µM (inactive)	10.1 µM (inactive)	16.6 µM (inactive)	17.5 µM (inactive)	17.6 µM (inactive)	15.7 µM (inactive)
C=C[C@]1(C)CC(=O)C(C(C)C=O)[C@]12C(=O)Oc1cccc(C)c1C2=O (stereo partly drawn)	16.8 µM (inactive)	14.6 µM (inactive)	–	8.22 µM (inactive)	14.9	14.8 µM (inactive)	16.1 µM (inactive)	18 µM (inactive)	16.4 µM (inactive)	14.4 µM (inactive)	14 µM (inactive)	4 µM (inactive)	15.2 µM (inactive)	15.5 µM (inactive)	12.9 µM (inactive)	15.5 µM (inactive)	16.5 µM (inactive)	15.9 µM (inactive)	17.7 µM (inactive)
SCc1ccc(CS)s1	> 100 µM (inactive)	> 100 µM (inactive)	15.3 µM (inactive)	–	> 100	> 100 µM (inactive)	> 100 µM (inactive)	> 100 µM (inactive)	> 100 µM (inactive)	–	> 100 µM (inactive)	> 100 µM (inactive)	> 100 µM (inactive)	> 100 µM (inactive)	> 100 µM (inactive)	> 100 µM (inactive)	> 100 µM (inactive)	> 100 µM (inactive)	> 100 µM (inactive)
CN(C)CCCN=C(N)N	> 100 µM (inactive)	> 100 µM (inactive)	> 100 µM (inactive)	> 100 µM (inactive)	> 100	> 100 µM (inactive)	> 100 µM (inactive)	> 100 µM (inactive)	> 100 µM (inactive)	> 100 µM (inactive)	> 100 µM (inactive)	85.3 µM (inactive)	> 100 µM (inactive)	> 100 µM (inactive)	> 100 µM (inactive)	> 100 µM (inactive)	> 100 µM (inactive)	> 100 µM (inactive)	–
COC(=O)/C=c1/c2ccccc2n2nc3ccccc3c12	> 100 µM (inactive)	69 µM (inactive)	–	18.4 µM (inactive)	77.1	31.6 µM (inactive)	> 100 µM (inactive)	65.9 µM (inactive)	> 100 µM (inactive)	63 µM (inactive)	36.9 µM (inactive)	45 µM (inactive)	> 100 µM (inactive)	62.2 µM (inactive)	51.4 µM (inactive)	> 100 µM (inactive)	42.6 µM (inactive)	> 100 µM (inactive)	62.5 µM (inactive)
